A value given as a limit tells only on which side of the number the result lay.

What is called EC50 is the midpoint of the concentration-response curve. A high value points to weaker potency.

The target in the test is T1, soluble guanylate cyclase (human GUCYA3/GUCYB3) overexpressed in CHO cells (Homo sapiens, UniProt Q02108+Q02153).
T1 construct: expressed in transfected cells
T1 sequence (Q02108 1-690 partner): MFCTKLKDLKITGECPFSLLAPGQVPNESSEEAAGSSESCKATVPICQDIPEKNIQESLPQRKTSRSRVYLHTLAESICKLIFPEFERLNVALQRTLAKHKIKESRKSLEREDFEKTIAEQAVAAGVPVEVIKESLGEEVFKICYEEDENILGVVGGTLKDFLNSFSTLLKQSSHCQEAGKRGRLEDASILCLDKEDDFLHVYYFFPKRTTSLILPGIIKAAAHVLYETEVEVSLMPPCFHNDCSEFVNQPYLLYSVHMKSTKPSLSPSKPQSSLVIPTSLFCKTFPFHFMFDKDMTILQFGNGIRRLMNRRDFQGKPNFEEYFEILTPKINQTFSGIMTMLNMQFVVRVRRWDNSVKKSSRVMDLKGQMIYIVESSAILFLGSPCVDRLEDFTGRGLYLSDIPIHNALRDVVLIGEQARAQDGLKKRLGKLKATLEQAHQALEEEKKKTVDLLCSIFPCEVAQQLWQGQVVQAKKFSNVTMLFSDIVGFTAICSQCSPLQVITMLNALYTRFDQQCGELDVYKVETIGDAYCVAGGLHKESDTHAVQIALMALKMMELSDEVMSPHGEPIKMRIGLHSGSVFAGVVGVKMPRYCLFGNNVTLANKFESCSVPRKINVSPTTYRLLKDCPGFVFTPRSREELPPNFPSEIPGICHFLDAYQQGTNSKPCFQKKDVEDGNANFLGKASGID
T1 sequence (Q02153 1-619): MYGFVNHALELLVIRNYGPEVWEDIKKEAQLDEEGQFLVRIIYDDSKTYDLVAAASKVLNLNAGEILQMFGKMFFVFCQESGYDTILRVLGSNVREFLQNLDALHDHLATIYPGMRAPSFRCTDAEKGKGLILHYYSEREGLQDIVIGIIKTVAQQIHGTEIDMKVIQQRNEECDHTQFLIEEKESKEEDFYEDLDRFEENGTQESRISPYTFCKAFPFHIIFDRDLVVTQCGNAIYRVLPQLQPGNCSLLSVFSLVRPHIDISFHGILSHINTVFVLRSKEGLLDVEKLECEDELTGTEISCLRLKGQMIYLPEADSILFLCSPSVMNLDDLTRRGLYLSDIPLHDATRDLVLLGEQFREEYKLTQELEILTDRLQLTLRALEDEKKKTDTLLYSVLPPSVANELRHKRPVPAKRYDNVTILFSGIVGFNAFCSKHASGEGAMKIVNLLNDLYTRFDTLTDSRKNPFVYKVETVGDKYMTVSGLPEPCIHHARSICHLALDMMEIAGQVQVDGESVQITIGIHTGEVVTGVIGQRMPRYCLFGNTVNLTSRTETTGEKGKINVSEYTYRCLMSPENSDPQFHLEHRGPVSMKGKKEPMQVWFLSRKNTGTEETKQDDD
Nature of the test: CHO cellular assay (cGMP production, HTRF). Particulars: CHO K1 clone 8E10 overexpressing human sGC, Cisbio HTRF, 1 h room temperature, 1 mM IBMX, 20 uM ODQ, minimum quantification limit 0.5 nM. The test is classed as cell-based. An excerpt:
Chinese hamster ovary (CHO) cells overexpressing soluble guanylate cyclase were generated to test the effect of sGC activators in a cellular context. Human cDNAs for GUCYA3 (RefSeq: NM_000856.3) and GUCYB3 (RefSeq: NM_000857.1) were amplified by PCR from a HUVEC (Human Umbilical Vein Endothelial Cells) cDNA library and cloned into mammalian expression vectors. CHO K1 cells (ATCC CCL-61) were transfected using Lipofectamine 2000 following manufacturer's instructions and stably expressing clones were identified by antibiotic selection. CHO GUCY clone 8E10 was used for subsequent experiments.
Cells were seeded at a density of 3000 cells/well in white 384-well proxyplates (Perkin Elmer) and incubated overnight, then the medium was removed and cells were washed with assay buffer (HBSS, 0.1% BSA, 1 mM IBMX, 20 uM ODQ). sGC activators were serially diluted in DMSO, then diluted in assay buffer prior to adding to cells (10 ul/well, final DMSO concentration 0.5%). Cells were incubated with compounds for 1 h room temperature, then assayed for cGMP production using Cisbio cGMP HTRF kit (62GM2PEC) according to manufacturer's instructions.
The EC50s are calculated based on the amount of cGMP interpolated from the standard curve, using a 4-parameter sigmoidal dose-response.
A general note: In TR-FRET formats the signal depends on donor and acceptor labels being close together.
As for `Cc1cc(C2CCN(C(=O)C3CCOC3)CC2)ccc1OCc1ccsc1-c1cccc(-n2ncc(C(=O)O)c2C(F)(F)F)n1` (racemic) [Example 12-3, (±)-1-(6-(3-((2-Methyl-4-(1-(tetrahydrofuran-3-carbonyl)piperidin-4-yl)phenoxy)methyl)thiophen-2-yl)pyridin-2-yl)-5-(trifluoromethyl)-1H-pyrazole-4-carboxylic acid], the EC50 worked out at 6.9 nM. This lies in the single-digit nanomolar range. Next, `Cc1cc(C2CCN(C(=O)C3COC(C)(C)O3)CC2)ccc1OCc1ccsc1-c1cccc(-n2ncc(C(=O)O)c2C(F)(F)F)n1` (racemic) [Example 12-6, (±)-1-(6-(3-((4-(1-(2,2-Dimethyl-1,3-dioxolane-4-carbonyl)piperidin-4-yl)-2-methylphenoxy)methyl)thiophen-2-yl)pyridin-2-yl)-5-(trifluoromethyl)-1H-pyrazole-4-carboxylic acid]: 48 nM; `Cc1cc(COc2ccc(C3CCN(C(=O)C4CC4)CC3O)cc2)c(-c2cccc(-n3ncc(C(=O)O)c3C(F)(F)F)n2)s1` (racemic) [Example 35-11, (±)-trans-1-(6-(3-((4-(1-(Cyclopropanecarbonyl)-3-hydroxypiperidin-4-yl)phenoxy)methyl)-5-methylthiophen-2-yl)pyridin-2-yl)-5-(trifluoromethyl)-1H-pyrazole-4-carboxylic acid]: 160 nM. `Cc1cc(C2CCN(C(=O)C3CCNC3)CC2)ccc1OCc1ccsc1-c1cccc(-n2ncc(C(=O)O)c2C(F)(F)F)n1` (racemic) [Example 42, (±)-1-(6-(3-((2-Methyl-4-(1-(pyrrolidine-3-carbonyl)piperidin-4-yl)phenoxy)methyl)thiophen-2-yl)pyridin-2-yl)-5-(trifluoromethyl)-1H-pyrazole-4-carboxylic acid] gave an EC50 of 620 nM. `CCc1cc(OCc2cc(C)sc2-c2cccc(-n3ncc(C(=O)O)c3C(F)(F)F)n2)ccc1C1CCN(C(=O)C(O)CO)CC1` (racemic) [Example 44, (±)-1-(6-(3-((4-(1-(2,3-Ddihydroxypropanoyl)piperidin-4-yl)-3-ethylphenoxy)methyl)-5-methylthiophen-2-yl)pyridin-2-yl)-5-(trifluoromethyl)-1H-pyrazole-4-carboxylic acid]: the EC50 came out at 130 nM. Regarding `Cc1cc(COc2ccc([C@@H]3CCN(C(=O)C4CC4)C[C@H]3O)cc2)c(-c2cccc(-n3ncc(C(=O)O)c3C(F)(F)F)n2)s1` (single isomer, unassigned) [Example 35-6, (+)-trans-1-(6-(3-((4-((3,4)-1-(cyclopropanecarbonyl)-3-hydroxypiperidin-4-yl)phenoxy)methyl)-5-methylthiophen-2-yl)pyridin-2-yl)-5-(trifluoromethyl)-1H-pyrazole-4-carboxylic acid], the EC50 turned out to be 91 nM. This EC50 and that of the compound before are within 1.5-fold of each other. In turn, `CCC(=O)N1CCC(c2ccc(OCc3ccsc3-c3cccc(-n4ncc(C(=O)O)c4C(F)(F)F)n3)cc2)CC1` [Example 1, 1-(6-(3-((4-(1-Propionylpiperidin-4-yl)phenoxy)methyl)thiophen-2-yl)pyridin-2-yl)-5-(trifluoromethyl)-1H-pyrazole-4-carboxylic acid] came in with an EC50 of 24 nM.

Consider `CCC(=O)N1CCC(c2ccc(OCc3c(C(F)(F)F)csc3-c3cccc(-n4ncc(C(=O)O)c4C(F)(F)F)n3)cc2)CC1` [Example 2-1, 1-(6-(3-((4-(1-Propionylpiperidin-4-yl)phenoxy)methyl)-4-(trifluoromethyl)thiophen-2-yl)pyridin-2-yl)-5-(trifluoromethyl)-1H-pyrazole-4-carboxylic acid], for which it took 2.8 nM to reach a half-maximal effect (EC50). The compound `COC(=O)N1CCC(c2ccc(OCc3ccsc3-c3cccc(-n4ncc(C(=O)O)c4C(F)(F)F)n3)cc2)CC1` [Example 2-2, 1-(6-(3-((4-(1-(Methoxycarbonyl)piperidin-4-yl)phenoxy)methyl)thiophen-2-yl)pyridin-2-yl)-5-(trifluoromethyl)-1H-pyrazole-4-carboxylic acid] came in with an EC50 of 32 nM. `O=C(O)c1cnn(-c2cccc(-c3sccc3COc3ccc(C4CCN(C(=O)C5CC5)CC4)cc3)n2)c1C(F)(F)F` [Example 2-3, 1-(6-(3-((4-(1-(Cyclopropanecarbonyl)piperidin-4-yl)phenoxy)methyl)thiophen-2-yl)pyridin-2-yl)-5-(trifluoromethyl)-1H-pyrazole-4-carboxylic acid] displayed an EC50 of 2.8 nM.

`CCC(=O)N1CCC(c2ccc(OCc3c(C(F)(F)F)csc3-c3cccc(-n4ncc(C(=O)O)c4C(F)(F)F)n3)c(C)c2)CC1` [Example 2-4, 1-(6-(3-((2-Methyl-4-(1-propionylpiperidin-4-yl)phenoxy)methyl)-4-(trifluoromethyl)thiophen-2-yl)pyridin-2-yl)-5-(trifluoromethyl)-1H-pyrazole-4-carboxylic acid] returned an EC50 of at most 0.5 nM. Take `CCC(=O)N1CCC(c2ccc(OCc3ccsc3-c3cccc(-n4ncc(C(=O)O)c4C(F)(F)F)n3)c(C)c2)CC1` [Example 2-5, 1-(6-(3-((2-Methyl-4-(1-propionylpiperidin-4-yl)phenoxy)methyl)thiophen-2-yl)pyridin-2-yl)-5-(trifluoromethyl)-1H-pyrazole-4-carboxylic acid]: the EC50 came to 5.5 nM. This counts as single-digit nanomolar. Next, `COC(=O)N1CCC(c2ccc(OCc3cc(C)sc3-c3cccc(-n4ncc(C(=O)O)c4C(F)(F)F)n3)c(C)c2)CC1` [Example 3, 1-(6-(3-((4-(1-(Methoxycarbonyl)piperidin-4-yl)-2-methylphenoxy)methyl)-5-methylthiophen-2-yl)pyridin-2-yl)-5-(trifluoromethyl)-1H-pyrazole-4-carboxylic acid]: 1.4 nM. Turning to `CCC(=O)N1CCC(c2cc(C)c(OCc3ccsc3-c3cccc(-n4ncc(C(=O)O)c4C(F)(F)F)n3)c(C)c2)CC1` [Example 4-1], the midpoint of the response, the EC50, lay at 2 nM. This EC50 and that of the compound before are within 1.5-fold of each other.

For `CCC(=O)N1CCC(c2ccc(OCc3cc(C)sc3-c3cccc(-n4ncc(C(=O)O)c4C(F)(F)F)n3)cc2)CC1` [Example 4-2, 1-(6-(5-Methyl-3-((4-(1-propionylpiperidin-4-yl)phenoxy)methyl)thiophen-2-yl)pyridin-2-yl)-5-(trifluoromethyl)-1H-pyrazole-4-carboxylic acid], the midpoint of the response, the EC50, lay at 3 nM. Consider `CCc1cc(COc2ccc(C3CCN(C(=O)OC)CC3)cc2C)c(-c2cccc(-n3ncc(C(=O)O)c3C(F)(F)F)n2)s1` [Example 4-3, 1-(6-(5-Ethyl-3-((4-(1-(methoxycarbonyl)piperidin-4-yl)-2-methylphenoxy)methyl)thiophen-2-yl)pyridin-2-yl)-5-(trifluoromethyl)-1H-pyrazole-4-carboxylic acid], for which it took 5.5 nM to reach a half-maximal effect (EC50). `Cc1cc(C2CCN(C(=O)C3CC3)CC2)ccc1OCc1c(C)csc1-c1cccc(-n2ncc(C(=O)O)c2C(F)(F)F)n1` [Example 4-4, 1-(6-(3-((4-(1-(Cyclopropanecarbonyl)piperidin-4-yl)-2-methylphenoxy)methyl)-4-methylthiophen-2-yl)pyridin-2-yl)-5-(trifluoromethyl)-1H-pyrazole-4-carboxylic acid] returned an EC50 of at most 0.5 nM.

(Values after patent publication US9765067B2, “Thiophen-2-yl-pyridin-2-yl-1H-pyrazole-4-carboxylic acid derivatives and the use thereof as soluble guanylate cyclase activators” (Novartis AG, priority 2014, dated 2017).)
